Measured values from patent US20060014677A1, “Method for maximizing efficacy and predicting and minimizing toxicity of calcineurin inhibitor compounds” (Isotechnika International Inc., priority 2004, published 2006).
Converted amounts (≈) assume the structure as drawn.

Tests used:
[1] = system: stable renal transplant patients; details: human, in vivo, 12 week
Experimental: (§1) At weeks 1, 6, and 12, serial whole blood samples were drawn and drug concentrations were determined. PK and PD were evaluated using standard non-compartmental analysis and a calcineurin inhibition assay. […] Whole blood lysates were evaluated for their ability to dephosphorylate a ^32P-labelled 19 amino acid peptide substrate in the presence of okadaic acid, a phosphatast type 1 and 2 inhibitor. Background phosphatase 2C activity (CsA and okadaic acid resistant activity) was determined and subtracted from each sample, with the assay performed in the presence and absence of excess added CsA. The remaining phosphatase activity was taken as calcineurin activity. Serum creatinine was measured from blood samples, as a measure of renal toxicity.
This discriminant analysis was performed using SPSS for Windows version 10.1 software available from SPSS Inc.
A measurement taken at 8 hours was used as peak concentration in the absence of a C2 measurement in this study. […] Cmin measurement could be a measurement taken at C0 or at C8, whichever measurement gave the lower measurement. […] Clinical diagnosis of renal toxicity may require an increase of, for example, 50% over baseline.

clinical = details: human, in vivo
Experimental: as §1
(§2) A direct PK-PD correlation was performed using a sigmoid Emax model.
A measurement taken at 8 hours was used as peak concentration in the absence of a C2 measurement in this study. […] Cmin measurement could be a measurement taken at C0 or at C8, whichever measurement gave the lower measurement.
Percent fluctuation (FLU) was calculated as shown in Formula (2): [formula]

calcineurin = assay: Calcineurin inhibition assay on whole blood lysates, PK-PD sigmoid Emax model (Study A, phase II); assay type: in vivo, human; details: FIG. 4A/4B; peak (C2) concentration vs % CNI
Experimental: At weeks 1, 6, and 12, serial whole blood samples were drawn and drug concentrations were determined. PK and PD were evaluated using standard non-compartmental analysis and a calcineurin inhibition assay. […] Whole blood lysates were evaluated for their ability to dephosphorylate a ^32P-labelled 19 amino acid peptide substrate in the presence of okadaic acid, a phosphatast type 1 and 2 inhibitor. Background phosphatase 2C activity (CsA and okadaic acid resistant activity) was determined and subtracted from each sample, with the assay performed in the presence and absence of excess added CsA. The remaining phosphatase activity was taken as calcineurin activity.
as §2
AIC is the Akaike Information Criterion. It is a dimensionless “goodness of fit” parameter that is a modification of an ‘F-test.’ The lower the AIC number the better the fit. This relationship was constructed using concentrations from trough (C0) through hour 4 (C4).

psoriasis patients = assay: Psoriasis Area and Severity Index (PASI) vs trough concentration in psoriasis patients; assay type: in vivo, human; details: FIG. 2
Source text: While % CNI is used in FIG. 1 to illustrate drug efficacy, there are other ways to measure transplant drug efficacy or calcineurin inhibitor drug efficacy. For example, in animal models, graft survival in transplantation is an indication of immunosuppressive drug efficacy. However, graft survival is an experimental model that takes a long time to measure and is complicated in that grafts may not survive for reasons other than the effective concentration of immunosuppressive agents. For example, prolonged cold ischemic time, donor/recipient mismatch or surgical technique may affect outcome of a graft. In human transplant patients, episodes of rejection may be indicators of failure of a calcineurin inhibitor. Other markers may be patient survival, in the case of transplant. For Psoriasis, a decrease in Psoriasis Area and Severity Index (PASI) score is an indication of effective treatment of psoriasis. A 75% reduction in PASI score is commonly held as a successful therapy.
Using PASI score as another indicator of drug efficacy, FIG. 2 illustrates that as drug concentration increases, the PASI score, an indicator of psoriasis severity, decreases. […] EC50 is an indication of the potency of the drug. […] FIG. 2 illustrates the relationship between trough drug concentration (C0) and PASI score on day 42 of treatment where E equals effect, in this case measured by PASI score.

With `C=C/C=C/C[C@@H](C)[C@@H](O)[C@H]1C(=O)N[C@@H](CC)C(=O)N(C)CC(=O)N(C)[C@@H](CC(C)C)C(=O)N[C@@H](C(C)C)C(=O)N(C)[C@@H](CC(C)C)C(=O)N[C@@H](C)C(=O)N[C@H](C)C(=O)N(C)[C@@H](CC(C)C)C(=O)N(C)[C@@H](CC(C)C)C(=O)N(C)[C@@H](C(C)C)C(=O)N1C` [ISA247] the “number of patients with normal renal function (actual group membership)” value [1] was 121, the “number of patients with renal toxicity (actual group membership)” value [1] was 26 and the “Cmax, mean” value (clinical) was 159.59 ng/mL. The “t1/2, comparison between the two drugs” value (clinical) was “similar”, the “time to maximum concentration (tmax), comparison between the two drugs” value (clinical) was “similar” and the “C8, mean” value (clinical; 8 h) was 54.327 ng/mL. For the same molecule, the concentration at 8 h (clinical; C8, mean) was 37.3 ng/mL, the Cmax (clinical; Cmax, mean) was 188 ng/mL and the EC50 (calcineurin) was 161.8+54.5 ng/mL. For the same molecule, the “Emax, maximum possible mean PASI” value (psoriasis patients; trough (C0) concentration vs PASI on day 42) was 22.9±7 PAS1 and the EC50 (psoriasis patients; Homo sapiens, 1008 h, read-out: EC50, trough concentration required to achieve a 50% reduction in PASI, trough (C0), day 42 of treatment) was 0.0135 ± 0.0081 µg/mL (≈ 0.0111 µM).
